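In this assay, cells in 96-well plates receive the compound at five concentrations for 48 hours. Endpoints are linearly interpolated between the surrounding concentrations. Here, GI50 denotes the concentration required for 50% inhibition of growth.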 Activity calls are given as the source filed them. No stated cut-off is given here; in the data, active = GI50 up to about 1.1 µM and inactive = higher.
Legend:
Assay in all cases: NCI tumour cell line growth inhibition, 48 h
786-0 = tested on: 786-0
A498 = tested on: A498
A549 = tested on: A549
ACHN = tested on: ACHN
BT-549 = tested on: BT-549
CAKI-1 = tested on: CAKI-1
CCRF-CEM = tested on: CCRF-CEM
COLO 205 = tested on: COLO 205
DU-145 = tested on: DU-145
EKVX = tested on: EKVX
HCC 2998 = tested on: HCC 2998
HCT-116 = tested on: HCT-116
HCT-15 = tested on: HCT-15
HOP-62 = tested on: HOP-62
HOP-92 = tested on: HOP-92
HT-29 = tested on: HT-29
Hs-578T = tested on: Hs-578T
IGROV-1 = tested on: IGROV-1
K562 = tested on: K562
KM12 = tested on: KM12
LOX IMVI = tested on: LOX IMVI
M14 = tested on: M14
MCF7 = tested on: MCF7
MDA-MB-231 = tested on: MDA-MB-231
MDA-MB-435 = tested on: MDA-MB-435
MDA-N = tested on: MDA-N
MOLT-4 = tested on: MOLT-4
Malme-3M = tested on: Malme-3M
NCI-H226 = tested on: NCI-H226
NCI-H23 = tested on: NCI-H23
NCI-H460 = tested on: NCI-H460
NCI-H522 = tested on: NCI-H522
NCI/ADR-RES = tested on: NCI/ADR-RES
OVCAR-3 = tested on: OVCAR-3
OVCAR-4 = tested on: OVCAR-4
OVCAR-5 = tested on: OVCAR-5
OVCAR-8 = tested on: OVCAR-8
PC-3 = tested on: PC-3
RPMI-8226 = tested on: RPMI-8226
RXF 393 = tested on: RXF 393
SF-268 = tested on: SF-268
SF-295 = tested on: SF-295
SK-MEL-28 = tested on: SK-MEL-28
SK-MEL-5 = tested on: SK-MEL-5
SK-OV-3 = tested on: SK-OV-3
SN12C = tested on: SN12C
SNB-19 = tested on: SNB-19
SNB-75 = tested on: SNB-75
SW-620 = tested on: SW-620
T47D = tested on: T47D
TK-10 = tested on: TK-10
U-251 = tested on: U-251
UACC-257 = tested on: UACC-257
UACC-62 = tested on: UACC-62
UO-31 = tested on: UO-31
SF-539 = tested on: SF-539
SK-MEL-2 = tested on: SK-MEL-2
HL-60 = tested on: HL-60

## Cc1c(Cl)c(S(N)(=O)=O)cc2c1N=CNS2(=O)=O
786-0
  GI50: > 100 µM (inactive)
A498
  GI50: > 100 µM (inactive)
A549
  GI50: > 100 µM (inactive)
ACHN
  GI50: > 100 µM (inactive)
BT-549
  GI50: > 100 µM (inactive)
CAKI-1
  GI50: > 100 µM (inactive)
CCRF-CEM
  GI50: > 100 µM (inactive)
COLO 205
  GI50: > 100 µM (inactive)
DU-145
  GI50: > 100 µM (inactive)
EKVX
  GI50: 0.507 µM (active)
HCC 2998
  GI50: > 100 µM (inactive)
HCT-116
  GI50: > 100 µM (inactive)
HCT-15
  GI50: > 100 µM
HOP-62
  GI50: > 100 µM (inactive)
HOP-92
  GI50: > 100 µM (inactive)
HT-29
  GI50: > 100 µM (inactive)
Hs-578T
  GI50: > 100 µM (inactive)
IGROV-1
  GI50: > 100 µM (inactive)
K562
  GI50: > 100 µM (inactive)
KM12
  GI50: > 100 µM (inactive)
LOX IMVI
  GI50: > 100 µM (inactive)
M14
  GI50: > 100 µM (inactive)
MCF7
  GI50: > 100 µM (inactive)
MDA-MB-231
  GI50: > 100 µM (inactive)
MDA-MB-435
  GI50: > 100 µM (inactive)
MDA-N
  GI50: > 100 µM (inactive)
MOLT-4
  GI50: > 100 µM (inactive)
Malme-3M
  GI50: > 100 µM (inactive)
NCI-H226
  GI50: > 100 µM (inactive)
NCI-H23
  GI50: > 100 µM (inactive)
NCI-H460
  GI50: > 100 µM (inactive)
NCI-H522
  GI50: > 100 µM (inactive)
NCI/ADR-RES
  GI50: > 100 µM (inactive)
OVCAR-3
  GI50: > 100 µM (inactive)
OVCAR-4
  GI50: > 100 µM (inactive)
OVCAR-5
  GI50: > 100 µM (inactive)
OVCAR-8
  GI50: > 100 µM (inactive)
PC-3
  GI50: > 100 µM (inactive)
RPMI-8226
  GI50: > 100 µM (inactive)
RXF 393
  GI50: > 100 µM (inactive)
SF-268
  GI50: > 100 µM (inactive)
SF-295
  GI50: > 100 µM (inactive)
SK-MEL-28
  GI50: > 100 µM (inactive)
SK-MEL-5
  GI50: > 100 µM (inactive)
SK-OV-3
  GI50: > 100 µM (inactive)
SN12C
  GI50: > 100 µM (inactive)
SNB-19
  GI50: > 100 µM (inactive)
SNB-75
  GI50: > 100 µM (inactive)
SW-620
  GI50: > 100 µM (inactive)
T47D
  GI50: > 100 µM (inactive)
TK-10
  GI50: > 100 µM (inactive)
U-251
  GI50: > 100 µM (inactive)
UACC-257
  GI50: > 100 µM (inactive)
UACC-62
  GI50: > 100 µM (inactive)
UO-31
  GI50: > 100 µM (inactive)

## C/C(=N\NC1=NCCN1)c1cn(C2=NCCN2)nc1C
786-0
  GI50: > 100 µM (inactive)
A498
  GI50: > 100 µM (inactive)
A549
  GI50: > 100 µM (inactive)
ACHN
  GI50: > 100 µM (inactive)
BT-549
  GI50: > 100 µM (inactive)
CAKI-1
  GI50: > 100 µM (inactive)
COLO 205
  GI50: > 100 µM (inactive)
DU-145
  GI50: > 100 µM (inactive)
EKVX
  GI50: > 100 µM (inactive)
HCC 2998
  GI50: > 100 µM (inactive)
HCT-116
  GI50: > 100 µM (inactive)
HCT-15
  GI50: > 100 µM
HOP-62
  GI50: > 100 µM (inactive)
HOP-92
  GI50: 97.1 µM (inactive)
HT-29
  GI50: > 100 µM (inactive)
Hs-578T
  GI50: > 100 µM (inactive)
IGROV-1
  GI50: > 100 µM (inactive)
K562
  GI50: 59.6 µM (inactive)
KM12
  GI50: > 100 µM (inactive)
M14
  GI50: > 100 µM (inactive)
MCF7
  GI50: > 100 µM (inactive)
MDA-MB-231
  GI50: > 100 µM (inactive)
MDA-MB-435
  GI50: > 100 µM (inactive)
MDA-N
  GI50: > 100 µM (inactive)
Malme-3M
  GI50: > 100 µM (inactive)
NCI-H226
  GI50: > 100 µM (inactive)
NCI-H23
  GI50: > 100 µM (inactive)
NCI-H460
  GI50: > 100 µM (inactive)
NCI-H522
  GI50: > 100 µM (inactive)
NCI/ADR-RES
  GI50: > 100 µM (inactive)
OVCAR-3
  GI50: > 100 µM (inactive)
OVCAR-4
  GI50: > 100 µM (inactive)
OVCAR-5
  GI50: > 100 µM (inactive)
OVCAR-8
  GI50: > 100 µM (inactive)
PC-3
  GI50: > 100 µM (inactive)
RPMI-8226
  GI50: > 100 µM (inactive)
RXF 393
  GI50: 72.1 µM (inactive)
SF-268
  GI50: > 100 µM (inactive)
SF-295
  GI50: > 100 µM (inactive)
SF-539
  GI50: > 100 µM (inactive)
SK-MEL-28
  GI50: > 100 µM (inactive)
SK-MEL-2
  GI50: > 100 µM (inactive)
SK-MEL-5
  GI50: > 100 µM (inactive)
SK-OV-3
  GI50: > 100 µM (inactive)
SN12C
  GI50: > 100 µM (inactive)
SNB-19
  GI50: > 100 µM (inactive)
SNB-75
  GI50: 77.6 µM (inactive)
SW-620
  GI50: > 100 µM (inactive)
T47D
  GI50: > 100 µM (inactive)
TK-10
  GI50: > 100 µM (inactive)
U-251
  GI50: > 100 µM (inactive)
UACC-257
  GI50: > 100 µM (inactive)
UACC-62
  GI50: > 100 µM (inactive)
UO-31
  GI50: > 100 µM (inactive)

## O=C(O)CC1NC(/C(=C/c2ccccc2O)NC(=O)c2ccccc2)OC1=O (configuration not stated)
786-0
  GI50: 30.3 µM (inactive)
A498
  GI50: > 75 µM (inactive)
A549
  GI50: > 100 µM (inactive)
ACHN
  GI50: 19.3 µM (inactive)
BT-549
  GI50: 13.9 µM (inactive)
CAKI-1
  GI50: > 56.1 µM (inactive)
CCRF-CEM
  GI50: > 100 µM (inactive)
COLO 205
  GI50: > 100 µM (inactive)
DU-145
  GI50: > 79.6 µM (inactive)
EKVX
  GI50: > 33.7 µM (inactive)
HCC 2998
  GI50: > 40.4 µM (inactive)
HCT-116
  GI50: 45.9 µM (inactive)
HCT-15
  GI50: 30 µM
HL-60
  GI50: > 43.9 µM (inactive)
HOP-62
  GI50: 14 µM (inactive)
HOP-92
  GI50: 28.7 µM (inactive)
HT-29
  GI50: > 96.6 µM (inactive)
Hs-578T
  GI50: 24.7 µM (inactive)
IGROV-1
  GI50: 14.3 µM (inactive)
K562
  GI50: > 100 µM (inactive)
KM12
  GI50: 5.14 µM (inactive)
LOX IMVI
  GI50: 50.9 µM (inactive)
M14
  GI50: > 78 µM (inactive)
MCF7
  GI50: 3.97 µM (inactive)
MDA-MB-231
  GI50: 22.1 µM (inactive)
MDA-MB-435
  GI50: 9.29 µM (inactive)
MDA-N
  GI50: 29.4 µM (inactive)
MOLT-4
  GI50: > 100 µM (inactive)
Malme-3M
  GI50: 55.7 µM (inactive)
NCI-H226
  GI50: 17 µM (inactive)
NCI-H23
  GI50: 26.1 µM (inactive)
NCI-H460
  GI50: > 58.7 µM (inactive)
NCI-H522
  GI50: 33 µM (inactive)
NCI/ADR-RES
  GI50: 19.5 µM (inactive)
OVCAR-3
  GI50: > 33.5 µM (inactive)
OVCAR-4
  GI50: 7.59 µM (inactive)
OVCAR-5
  GI50: > 100 µM (inactive)
OVCAR-8
  GI50: 27.3 µM (inactive)
PC-3
  GI50: 49 µM (inactive)
RPMI-8226
  GI50: > 100 µM (inactive)
RXF 393
  GI50: 29 µM (inactive)
SF-268
  GI50: > 23.3 µM (inactive)
SF-295
  GI50: 26.6 µM (inactive)
SF-539
  GI50: 22.3 µM (inactive)
SK-MEL-28
  GI50: > 100 µM (inactive)
SK-MEL-2
  GI50: 47.2 µM (inactive)
SK-MEL-5
  GI50: > 73.5 µM (inactive)
SK-OV-3
  GI50: 23 µM (inactive)
SN12C
  GI50: 48.8 µM (inactive)
SNB-19
  GI50: 17.8 µM (inactive)
SNB-75
  GI50: 7.21 µM (inactive)
SW-620
  GI50: > 100 µM (inactive)
T47D
  GI50: 11.7 µM (inactive)
TK-10
  GI50: 61 µM (inactive)
U-251
  GI50: 24.7 µM (inactive)
UACC-257
  GI50: > 58.5 µM (inactive)
UACC-62
  GI50: 25.8 µM (inactive)
UO-31
  GI50: 33.9 µM (inactive)

Reference: ChEMBL document CHEMBL1201862, “PubChem BioAssay data set” (2004)
